# “And” between values parts separate entries of the source, which are not always exact repeats. Equal entries are not always repeated. Where two headings read alike, the source gives them in different places.
# Tests used:
# [1] = tested on: P. berghei-ANKA-GFP-LucCON liver stage parasites in HepG2-A16-CD81EGFP cells; assay: P. berghei liver stage Pb-Luc assay, Method 1 (UCSD, 1536-well); format: cell-based, Plasmodium berghei; conditions: for activity at 1 µM / activity at 3 µM: 48 h; for Max Resp (signal direction of the dose response): Decrease = decreasing P. berghei viability with dose, Increase = increasing signal, Inactive = no dose response
# in vitro [2] = conditions: human, hepg2 cells
# HepG2 = conditions: human, hepg2 cells, 48 h
# [3] = tested on: luciferase-expressing P. berghei liver stage parasites in HepG2 cells; assay: Inhibition of liver-stage development assay (ILSDA), Method 2 (WRAIR, 96-well); format: cell-based, Plasmodium berghei; conditions: for AC50: Plasmodium berghei, HepG2, Method 2
# in vitro [4] = conditions: human, HepG2-A16-CD81EGFP cells, uninfected
# [5] = tested on: Plasmodium falciparum Dd2 asexual blood stage parasites; assay: microbe, parasite or virus in culture; design: species or system Plasmodium falciparum Dd2 in human erythrocytes; single determination (one 11-point concentration-response curve); conditions: Plasmodium falciparum, DD2, Erythrocyte, 72 h; read-out: AC50
# [6] = tested on: P. falciparum Dd2 Cytb A122D; assay: SYBR Green ABS proliferation assay, NCGC00473217 selected clone F12; format: cell-based, Plasmodium falciparum; conditions: Plasmodium falciparum
# Description: (§1) As resistance selection studies implicated the parasite cytochrome bc1 complex in mediating reduced parasite susceptibility to both NCGC00473217 and NCGC00374598, we leveraged these drug-selected parasites to test for altered drug response to a panel of antimalarial compounds.
# (§2) The P. falciparum parasite Dd2 line was cultured in vitro using standard conditions. […] Tissue culture flasks and assay plates were incubated at 37 °C under a gas mixture of 5% CO2, 5% O2 and 90% N2. […] Significant differences were assessed using two-sided Student’s t-tests. All HTS assays were stopped and read at 72 h. Percent response values represent relative growth as judged by SYBR Green-I fluorescence intensity values normalized to controls.
# (§3) Fresh uninfected RBCs (0.5% hematocrit) were added on day 7 and media was changed every other day. […] Resistant parasites were maintained under drug media at a volume of 50 mL until a high parasitemia (> 5%) was achieved. Aliquots of the bulk resistant cultures were frozen in cryovials before cloning by limiting dilution in 96-well plates (seeded at 0.25 or 0.5 parasites/well)[70]. After 3 weeks of cloning, we screened for positive wells by flow cytometry with SYBR Green-stained cells. […] Parasites were harvested by saponin lysis at the trophozoite stage and genomic DNA was extracted using the QIAamp DNA Blood Midi Kit (Qiagen, Germantown, MD)[71].
# [7] = tested on: P. falciparum Dd2 Cytb G131S; assay: SYBR Green ABS proliferation assay, NCGC00374598 selected clone C11; format: cell-based, Plasmodium falciparum; conditions: Plasmodium falciparum
# Description: as §1, §2, §3
# [8] = tested on: T1, Plasmodium falciparum Dd2-attB-ScDHODH (transgenic line expressing yeast DHODH), asexual blood stages; assay: organism not typed; design: replicate k of 3 (each line is one of three independent assays; the three lines of one compound and parasite line follow each other); conditions: 72 h, n = 1
# T1 construct: Dd2-attB-ScDHODH, the transgenic line that expresses yeast DHODH
# In short: (§4)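 The transgenic line overexpresses fumarate-dependent yeast DHODH, bypassing parasite mETC and ubiquinone-dependent parasite DHODH. A subset of compounds was run in three independent assays on both lines, and line differences were tested by two-sided Student's t-test.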
# [9] = tested on: T2, Plasmodium falciparum Dd2-attB (parental line), asexual blood stages; assay: microbe, parasite or virus in culture; design: replicate k of 3 (each line is one of three independent assays; the three lines of one compound and parasite line follow each other); conditions: n = 1
# T2 construct: Dd2-attB, the isogenic parental line
# In short: as §4
# [10] = tested on: P. falciparum Dd2 (clone B2) asexual blood stage parasites; assay: P. falciparum Dd2 asexual blood stage SYBR Green-I 72 h proliferation assay (qHTS); format: cell-based, Plasmodium falciparum; conditions: Plasmodium falciparum, DD2, Dd2 parental; Hill fit, averaged from three independent replicates; top concentration 29 µM; read-out: Average AC50 (Log[M]), Dd2 (converted)
# [11] = Plasmodium berghei, 1 uM (compounds provided at 10 mM), average of 2 wells on a 1536 well plate, column 11, read-out: Pb-Luc (P. berghei liver stage), % of control, lower concentration, first repeat
# [12] = Plasmodium berghei, 1 uM (compounds provided at 10 mM), average of 2 wells on a 1536 well plate, column 12, read-out: Pb-Luc (P. berghei liver stage), % of control, lower concentration, second repeat
# [13] = Plasmodium berghei, 3 uM (compounds provided at 10 mM), average of 2 wells on a 1536 well plate, column 8, read-out: Pb-Luc (P. berghei liver stage), % of control, higher concentration, first repeat
# [14] = Plasmodium berghei, 3 uM (compounds provided at 10 mM), average of 2 wells on a 1536 well plate, column 9, read-out: Pb-Luc (P. berghei liver stage), % of control, higher concentration, second repeat
# [15] = Method 2, Decrease = decreasing P. berghei viability with dose, Increase = increasing signal, Inactive = no dose response
# [16] = Hill fit, 50% of maximum activity response, read-out: AC50
# [17] = log10 of molar AC50 from Hill fit, read-out: Log AC50 (converted)
# [18] = Method 1, log10 of molar AC50 from Hill fit
# [19] = Plasmodium berghei, Method 1, log10 of molar AC50 from Hill fit, read-out: Log AC50 (converted)
Compound,CC50 at 48 h (in vitro [2]) [nM],Log AC50 (M) (HepG2),"Max Resp (signal direction of the dose response) [3, 15]","viability at 48 h, 1 µM (in vitro [4]) [%]","viability at 48 h, 3 µM (in vitro [4]) [%]",AC50 [5] [nM],"AC50 [3, 16] [nM]","AC50 [3, 17] [nM]",further results
Cc1cccc(Nc2nc(NCc3ccco3)c3ccccc3n2)c1 [MLS000662793-01],43200,-4.3643,Inactive,89,74,4730,,,"activity at 1 µM [1, 11]: 23%; activity at 1 µM [1, 12]: 19%; activity at 3 µM [1, 13]: 13%; activity at 3 µM [1, 14]: 11%"
CCO.Nc1nc(N)c2cc(Sc3ccc4ccccc4c3)ccc2n1 [MLS000757047-01],27300,-4.5643,Decrease,103,93,1330,2240,2240,"activity at 1 µM [1, 11]: 12%; activity at 1 µM [1, 12]: 12%; activity at 3 µM [1, 13]: 11%; activity at 3 µM [1, 14]: 10%; HepG2 viability, % of control, higher concentration, second repeat (HepG2-A16-CD81EGFP cells): 96%; HepG2 viability, % of control, lower concentration, second repeat (HepG2-A16-CD81EGFP cells): 99%"
c1ccc(Nc2nc(NCc3ccco3)c3ccccc3n2)cc1 [MLS000767881-01],43200,-4.3643,Decrease,94,80,1680,2240,2240,
COc1ccccc1Nc1cnc2ccc(-c3ccc(OC)c(OC)c3)nn12 [NCGC00412573-01],44400,-4.3528,,108,73.1,1530,,,"Max Resp (signal direction of the dose response) ([1]; Method 1): Decrease; AC50 ([1]; Method 1, Hill fit, 50% of maximum activity response, read-out: AC50): 447 nM; Log AC50 (M) [1, 18]: -6.350 M; activity at 1 µM ([1]; Plasmodium berghei, nominal 1 uM (10 mM stock), […] for 15 mM, 1.2 uM for 12 mM, 2 uM for 20 mM stock, average of 2 wells, 1536-well plate, repeat 1, read-out: Pb-Luc signal, 1 uM, repeat 1): 7.11%; activity at 1 µM ([1]; Plasmodium berghei, nominal 1 uM (10 mM stock), […] for 15 mM, 1.2 uM for 12 mM, 2 uM for 20 mM stock, average of 2 wells, 1536-well plate, repeat 2, read-out: Pb-Luc signal, 1 uM, repeat 2): 51.2%; activity at 1 µM ([1]; Plasmodium berghei, nominal 1 uM (10 mM stock), […] for 15 mM, 1.2 uM for 12 mM, 2 uM for 20 mM stock, average of 2 wells, 1536-well plate, repeat 3, read-out: Pb-Luc signal, 1 uM, repeat 3): 2.63%; activity at 3 µM ([1]; Plasmodium berghei, nominal 3 uM (10 mM stock), 4.5 uM for 15 mM, 3.6 uM for 12 mM, 6 uM for 20 mM stock, average of 2 wells, 1536-well plate, repeat 1, read-out: Pb-Luc signal, 3 uM, repeat 1): 1.18%; activity at 3 µM ([1]; Plasmodium berghei, nominal 3 uM (10 mM stock), 4.5 uM for 15 mM, 3.6 uM for 12 mM, 6 uM for 20 mM stock, average of 2 wells, 1536-well plate, repeat 2, read-out: Pb-Luc signal, 3 uM, repeat 2): 32.2%; activity at 3 µM ([1]; Plasmodium berghei, nominal 3 uM (10 mM stock), 4.5 uM for 15 mM, 3.6 uM for 12 mM, 6 uM for 20 mM stock, average of 2 wells, 1536-well plate, repeat 3, read-out: Pb-Luc signal, 3 uM, repeat 3): 43.3%; AC50 ([1]; Plasmodium berghei, Method 1, Hill fit, 50% of maximum activity response, read-out: AC50): 355 nM; AC50 [1, 19]: 355 nM; Activity direction (Decrease / Inactive) ([3]; P. berghei liver stage, Method 2, dose response): Inactive; HepG2 viability signal, 1 uM, repeat 2 (HepG2-A16-CD81EGFP cells; nominal 1 uM (10 mM stock), […] for 15 mM, 1.2 uM for 12 mM, 2 uM for 20 mM stock, average of 2 wells, repeat 2): 106.68%; HepG2 viability signal, 3 uM, repeat 2 (HepG2-A16-CD81EGFP cells; nominal 3 uM (10 mM stock), 4.5 uM for 15 mM, 3.6 uM for 12 mM, 6 uM for 20 mM stock, average of 2 wells, repeat 2): 92.36%"
O=C1c2ccccc2C2=Nc3ccccc3SC(c3ccc(Cl)cc3)C12 (stereo not drawn) [MLS000566883-01],43200,-4.3643,Decrease,90,85,2660,3980,3980,
CC(C)CC1=N[S+](=O)([O-])c2cc(NC(=O)c3ccc(F)s3)ccc2N1C [NCGC00651708-01],,,,,,,,,"AC50 ([6]; DD2, cytochrome b mutant line, fourth value triple, c12, […], read-out: log AC50, mean (converted)): 2.11e-06 M; AC50 ([7]; DD2, cytochrome b mutant line, second value triple, c6, […], read-out: log AC50, mean (converted)): 2.99e-06 M"
Oc1cc(NCc2ccccc2)cc2cccnc12 [NCGC00183793-01],43200,-4.3643,,91,52,2990,,,"Individual replicates / Log AC50 (M) [8]: -5.2486 Log AC50 (M); AC50 ([8]; read-out: Individual replicates / Log AC50 (converted)): 4480 nM; Individual replicates / Log AC50 (M) ([9]; 72 h): -5.3986 Log AC50 (M) and -5.2986 Log AC50 (M); AC50 ([9]; Plasmodium falciparum, DD2, 72 h, read-out: Individual replicates / Log AC50 (M) (converted)): 3.56e-06 M"
COc1ccc(CCN2CCC(Nc3nc4ccccc4n3Cc3ccc(F)cc3)CC2)cc1 [NCGC00016913-08],34300,-4.4643,,,,2370,,,"AC50 [1]: 3160 nM; Max Resp (signal direction of the dose response) ([1]; Method 1): Decrease; Log AC50 (M) [1, 18]: -5.500 M; AC50 [1, 19]: 2820 nM; Max Resp (signal direction of the dose response) [3]: Inactive"
CN1C(CSCC(F)(F)F)Nc2cc(Cl)c(S(N)(=O)=O)cc2S1(=O)=O (stereo not drawn) [NCGC00182076-03],,,,,,,,,"AC50 [10]: 2.82e-06 M; AC50 ([6]; DD2, […], averaged from three independent replicates, top concentration 29 µM, read-out: Average AC50 (Log[M]), NCGC00473217 clone F12 (Cytb A122D) (converted)): 1e-08 M; AC50 ([7]; DD2, […], averaged from three independent replicates, top concentration 29 µM, read-out: Average AC50 (Log[M]), NCGC00374598 clone C11 (Cytb G131S) (converted)): 3.56e-06 M"
